# Values joined by “and” are separate entries in the source; they are usually repeats but may differ in a detail not shown here. Equal values may be shown once. Numbered stars: 1 amine (or outer) side, 2 acyl side, 3 side chain; on linkers, the order of the positions; unused ones are H or OH. Bridge positions count the residues as written; N and C are the ends. Square brackets hold non-standard residues; d marks the D form. Peptide text beside a SMILES is read from it. I, II: the chains in the order shown. Actinocin(9to1) = Cc1c2oc3c(C)ccc(C(=O)[*:1])c3nc-2c(C(=O)[*:2])c(N)c1=O; NMeV = CN[C@H](C(=O)O)C(C)C; Sar = CNCC(=O)O
# Tests used:
# [1] = target: T1, Human recombinant TNF-α (Homo sapiens, UniProt P01375); experiment: Inhibition of TNF-α cytotoxicity in L929 cells (MTS/PMS); assay type: cell-based, mouse
# T1 construct: purchased Sigma-Aldrich
# [2] = test system: STAT3; experiment: STAT3 reporter GloResponse SIE-luc2P/HEK293 assay, IL-6 induction; assay type: cell-based, human; details: 24 and 48 hours treatment
# [3] = test system: SJSA-1 xenograft; details: mouse, in vivo
# [4] = test system: SJSA-1 xenograft; experiment: SJSA-1 bone osteosarcoma subcutaneous xenograft model; details: SBT-100 5.0 mg/kg BIDx14, Doxorubicin 7.0 mg/kg days 1, 8, 14, IP
# [5] = test system: PANC-1 cells; experiment: MTT proliferation assay, PANC-1; details: Homo sapiens, PANC-1, 72 h
# [6] = test system: MDA-MB-231 cells; experiment: MTT proliferation assay, MDA-MB-231; assay type: cell-based, human; details: test article cloudy; cells lost normal morphology
# [7] = target: T2, active human TNF-α full length protein (Homo sapiens, UniProt P01375); experiment: TNF-α binding ELISA; details: for detection in coated vs non-coated wells: 0.5 μg/mL coating antigen; for detection / binding to the TNF-α protein: Experiment 1
# T2 construct: active human TNF-α full length protein; purchased Abcam
# Description: In this Example, the binding of anti-TNF-α sdAbs to active human TNF-α full length protein was assessed using an enzyme linked immunosorbent assay (ELISA) format. Additionally, the feasibility of utilizing a secondary antibody targeted to the his tag portion of the sdAbs was assessed.
# The test articles for this study were anti-TNF-α VHH62 (SEQ ID NO:47) sdAb, TNF-α VHH66 (SEQ ID NO:45) sdAb, and anti-TNF-α VHH69 (SEQ ID NO:46) sdAb (Experiment 1).
# For the assays to assess the binding of the sdAbs to TNF-α protein (Experiment 1, 4 and 5), a standard sandwich ELISA format was utilized. […] Plates were incubated overnight at 2-8° C. After the incubation, plates were washed (3×) and blocked (3% Bovine Serum Albumin (BSA) in Phosphate Buffered Saline (PBS)) for at least one hour at room temperature.
# After removal of the blocking buffer and washing (3×), samples were added to the appropriate wells of the ELISA plates and incubated at room temperature with shaking (150 rpm) for at least one hour. The secondary antibody (rabbit anti-llama biotinylated antibody at either a1:5,000 or 10,000 dilution) was then added to each well and incubated with shaking for at least one hour at room temperature.
# After the incubation with secondary antibody, the plates were again washed (3×) and horseradish peroxidase (HRP) at either a 1:25,000 or 1:50,000 dilution was added to each well. Plates were incubated with shaking for at least one hour at room temperature. A final wash (3×) was performed followed by the addition of TMB (Tetramethylbenzidine) substrate. After a 20 to 25 minute incubation at room temperature, stop solution was added to halt the colorimetric reaction. The absorbance at 450 nm was measured on a VersaMax instrument utilizing SoftMax Pro GxP version 5.4 software from Molecular Devices (Sunnyvale, CA).
# The final experiment performed was to confirm that the results from the ELISA testing were due to binding to the TNF-α protein and not non-specific binding of the sdAb. For this determination, a comparison was made between wells coated with 0.5 μg/mL of coating antigen and non-coated wells. […] This experiment confirms that the detection seen with the previous experiments was due to the specific binding of the VHH to the coating antigen and not due to non-specific binding.
# T1 sequence (P01375 77-233 limits assumed): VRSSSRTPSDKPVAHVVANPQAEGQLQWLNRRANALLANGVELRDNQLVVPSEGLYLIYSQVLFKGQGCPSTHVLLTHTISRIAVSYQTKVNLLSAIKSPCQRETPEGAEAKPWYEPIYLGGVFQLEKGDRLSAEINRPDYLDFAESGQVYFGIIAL
# T2 sequence (P01375 77-233 limits assumed): as above
molecule,measurement,setting,value
"Cc1c2oc3c(C)ccc(C(=O)N[C@@H]4C(=O)N[C@H](C(C)C)C(=O)N5CCC[C@H]5C(=O)N(C)CC(=O)N(C)[C@@H](C(C)C)C(=O)O[C@@H]4C)c3nc-2c(C(=O)N[C@@H]2C(=O)N[C@H](C(C)C)C(=O)N3CCC[C@H]3C(=O)N(C)CC(=O)N(C)[C@@H](C(C)C)C(=O)O[C@@H]2C)c(N)c1=O [Actinomycin D] (I: T[dV]P[Sar][NMeV] / II: T[dV]P[Sar][NMeV]; ester I:1-I:C, II:1-II:C; linker I:N-II:N via Actinocin(9to1))","% Toxicity, Sample Replicate #","[1]; Assay 1 control, Actinomycin D only (no TNFα)",5.4% and 2.3% and 3.5% and 0% (8×)
same,"% Toxicity, Sample Replicate #","[1]; Assay 2 control, Actinomycin D only (no TNFα)",0%
"CC(=O)c1cc2c(o1)C(=O)c1ccccc1C2=O [BB1608, napabucasin, reference compound]",effect on IL-6 induction of the reporter,[2],Inhibition of IL-6
"COc1cccc2c1C(=O)c1c(O)c3c(c(O)c1C2=O)C[C@@](O)(C(=O)CO)C[C@@H]3O[C@H]1C[C@H](N)[C@H](O)[C@H](C)O1 [Doxorubicin, reference compound]",number of surviving at the end of the study,[3]; Hsd: Athymic Nude-Fox1nu,2
same,Are the survival curves sig different?,[3],Yes
same,"Tumor measurement, individual animals",[4]; day 8 post implant,0.00 mm^3
same,"Tumor measurement, Mean Abs",[4]; day 13 post implant,70.72 mm^3
same,"Tumor measurement, individual animals",[4]; day 23 post implant,116.85 mm^3
Nc1ccn([C@@H]2O[C@H](CO)[C@@H](O)C2(F)F)c(=O)n1 [Gemcitabine],inhibition at 0.313 µM,"[5]; read-out: % Inh, Gemcitabine Hydrochloride (Biovision #1759) 0.313 μM, 72 hours",0%
same,inhibition at 0.625 µM,"[5]; read-out: % Inh, Gemcitabine Hydrochloride (Biovision #1759) 0.625 μM, 72 hours",2%
same,inhibition at 5 µM,"[5]; read-out: % Inh, Gemcitabine Hydrochloride (Biovision #1759) 5 μM, 72 hours",36%
same,inhibition at 10 µM,"[5]; read-out: % Inh, Gemcitabine Hydrochloride (Biovision #1759) 10 μM, 72 hours",46%
"MPT His Tag: anti-STAT3 VHH13 (SBT-100) preparation produced by Microprotein Technologies, His tagged",inhibition compared with the other SBT-100 preparations,[6],greatest inhibition
TNFa,"% Toxicity, Sample Replicate #","[1]; Assay 1 control, TNFa 0.5 μg/mL",101.9% and 101.6% and 101.8% (3×) and 102.1% (4×) and 102.6% and 102.7% and 101.7%
"anti-TNF-α VHH69: anti-TNF-α sdAb, SEQ ID NO:46 (TNF_69, SEQ ID NO: 64) (protein, Camelid) VHH: EVQLVESGGGSVLAGGSLRLSCVASGFTSRYNYMAWFRQAPGKEREGVATIGTASGSADYYGSVKDRFTISQDNAKNTVYLQMNSLKPEDTAMYYCAARTYGTISLTPSDYRYWGQGTLVTVSS",effect on IL-6 induction of the reporter,[2],enhancement of the IL-6 induction
same,detection in coated vs non-coated wells,[7]; 1 μg/mL sdAb,detected in coated wells but not in non-coated wells
same,detection / binding to the TNF-α protein,[7]; 1 μg/mL sdAb,little to no detection
"anti-STAT3 VHH14: anti-STAT3 single domain antibody, SEQ ID NO:4 (same sequence as STAT3_14, SEQ ID NO: 8) (protein, Camelid) VHH: QVQLVESGGGSVQAGGSLRLSCVASTYTGCMGWFRQAPGKEREGVAALSSRGFAGHYTDSVKGRFSISRDYVKNAVYLQMNTVKPEDAAMYYCAAREGWECGETWLDRTAGGHTYWGQGTLVTVSS",effect on IL-6 induction of the reporter,[2],enhancement of the IL-6 induction
"anti-TNF-α VHH62: anti-TNF-α sdAb, SEQ ID NO:47 (TNF_62, SEQ ID NO: 66) (protein, Camelid) VHH: QVQLVESGGGPVQAGETLRLSCTASGFTFAEADMGWYRQAPGHECELVSTITTEGITSEASSYYADSVRGRFTISRDNAKNMVYLQMNSLKPEDTAVYYCAPDPYAYSTYSDYCSWAQGTQGTLVTVSS",detection in coated vs non-coated wells,[7]; 1 μg/mL sdAb,not detected in either coated or non-coated wells
same,detection / binding to the TNF-α protein,[7]; 1 μg/mL sdAb,little to no detection
same,OD values,"[7]; Experiment 4, 10-fold serial dilutions, old and new batch",< 0.2 OD450
same,"OD450 Values, Non-Coated","[7]; non-coated wells (non-specific binding), 1 μg/mL sdAb",−0.001

# From US12509530B2, “Single domain antibodies directed against intracellular antigens” (Singh Molecular Medicine, LLC, priority 2015, dated 2025)
